{
  "source": "patent US7285567B2",
  "about": "“Halogenated benzamide derivatives” (Romark Laboratories, L.C., priority 2005, dated 2007)",
  "key": {"[1]": {"test_system": "Rotavirus: Simian Rotavirus SA-11", "test": "microbe, parasite or virus in culture", "assay_type": "cell-based", "conditions": "Simian rotavirus SA-11, MA104 cell culture"}, "[2]": {"test_system": "Coronavirus: canine coronavirus strain S-378", "test": "microbe, parasite or virus in culture", "assay_type": "cell-based", "conditions": "canine coronavirus strain S-378, A72 cell culture"}, "[3]": {"test_system": "Herpes Simplex type 1: strain F1", "test": "microbe, parasite or virus in culture", "assay_type": "cell-based, Herpes Simplex virus type 1", "conditions": "Herpes Simplex type 1 strain F1, HEp-2 cell culture"}, "[4]": {"test_system": "Human Rhinovirus Type 39 (HRV-39)", "test": "Multiple cycle CPE inhibition assay on OH-I Hela cell monolayers", "assay_type": "cell-based", "conditions": "Rhinovirus A, HRV39, HRV-39, OH-Hela, 2% McCoys + Hepes Buffer", "description": "EC50 (μg/mL) values for 2-(acetolyloxy)-3-methyl-N-(5-bromo-2-thiazolyl)benzamide (RM4803), 2-(acetolyloxy)-3-methyl-N-(5-chloro-2-thiazolyl)benzamide (RM4804), and 2-(acetolyloxy)-3-methoxy-N-(5-bromo-2-thiazolyl)benzamide (RM4806), on Human Rhinovirus Type 39 (HRV-39), and H3N2 influenza virus, type A, using a multiple cycle CPE inhibition assay on OH-I Hela and Madin Darby Canine Kidney (MDCK) cell monolayers, respectively, were measured by microscopic and spectrophotometric methods. Pirodavir and Oseltamivir were included as positive controls."}},
  "note": "pEC50: −log10 of the molar value. Like-named read-outs stand apart in the source and are kept apart here.",
  "data": [
    {"smiles": "CC(=O)Oc1c(C)cccc1C(=O)Nc1ncc(Br)s1", "note": "[RM-4803, 2-(acetolyloxy)-3-methyl-N-(5-bromo-2-thiazolyl)benzamide]", "values": [
      {"measurement": "pEC50", "setting": "[1]; Rotavirus A", "value": 7.22},
      {"measurement": "SI (selectivity index) = CC50/EC50", "setting": "[1]; CC50 by MTT", "value": "> 2500"},
      {"measurement": "pEC50", "setting": "[2]; Alphacoronavirus 1, A-72", "value": 5.38},
      {"measurement": "SI (selectivity index) = CC50/EC50", "setting": "[2]; CC50 by MTT", "value": 13},
      {"measurement": "SI (selectivity index) = CC50/EC50", "setting": "[3]; CC50 by MTT", "value": 3},
      {"measurement": "pEC50", "setting": "[3]; Human alphaherpesvirus 1", "value": 5.25},
      {"measurement": "EC50", "setting": "[4]; microscopic reading, read-out: EC50, Microscopic", "value": 0.06, "unit": "µg/mL"},
      {"measurement": "EC50", "setting": "[4]; spectrophotometric reading, read-out: EC50, Spectrophotometer", "value": 0.03, "unit": "µg/mL"}
    ]}
  ]
}
